From PMC3856889 (Molecular cancer therapeutics, 2013)
Where “and” joins values, the source holds several entries; their conditions need not be identical. Identical values can stand only once.

Legend:
[1] = tested on: H358 cells; assay: Non-hypoxic/hypoxic cytotoxicity, cell count with Trypan blue; format: cell-based, human; conditions: hypoxic 1 % O2 relative to normoxic, 24 h, Fig. 2A
[2] = tested on: mice; conditions: cited from earlier work
[3] = tested on: H226; assay: MTT cytotoxicity assay, H226 NSCLC cells; format: cell-based, human; conditions: read-out: IC50 (µM) H226, 96-h incubation
[4] = tested on: C57 BL/6 mice; assay: Maximum tolerable dose, i.p. injection; format: in vivo, mouse; conditions: dose level causing no deaths, chloride salt
[5] = tested on: H358; assay: MTT cytotoxicity assay, H358 NSCLC cells; format: cell-based, human; conditions: read-out: IC50 (µM) H358, 96-h incubation
[6] = Water solubility of the salts; conditions: chloride salts
[7] = cited from earlier work; for potential of tatpp-based reductive processes: vs. NHE at pH 7.0
[8] = tested on: supercoiled plasmid pUC18 DNA; conditions: cited from earlier work
[9] = radiolabeled complex, in vivo; cited from earlier work
[10] = tested on: supercoiled plasmid pUC18 DNA; assay: DNA cleavage assay; format: biochemical
[11] = tested on: HUVEC; assay: Apoptosis, caspase-cleavage and TUNEL, HUVEC; format: cell-based, human; conditions: 10 µM
[12] = tested on: pAKT, pEGFR, PI3K, pRb, CDK4, cyclinB1, bcl2, Bax in H358 cells; assay: Western blot of apoptotic, proliferative and tumor suppressor proteins; format: cell-based, human; conditions: H358, 10 µM, 24 h, Fig. 2D
[13] = tested on: NCI-60 panel; assay: NCI-60 cell line one-dose screen; format: cell-based; conditions: single dose 10 µM
[14] = tested on: HUVEC; assay: Cytotoxicity towards normal HUVEC cells; format: cell-based, human
[15] = tested on: HUVSMC; assay: Apoptosis, HUVSMC; format: cell-based, human; conditions: similar treatment
[16] = tested on: HUVSMC; assay: Cytotoxicity towards normal HUVSMC cells; format: cell-based, human; conditions: read-out: IC50 for normal HUVSMC cells
[17] = tested on: acetyl cholinesterase (AChE); conditions: in vitro and in vivo; cited from earlier work

## cis-Pt(NH3)2Cl2 [cisplatin, reference compound]
[1]
  potentiation of cytotoxicity under hypoxic conditions: neither of which showed significant potentiation
[2]; murine acute toxicity
  LD50: ~ 57 µmol/kg

## ΔΛ-[(phen)2Ru(tatpp)Ru(phen)2]^4+ [ΔΛ-4^4+]
[3]
  IC50: 18.6 ± 1.5 µM
[4]
  Maximum Tolerable Dose MTD (mg complex /kg mouse): 66 mg complex /kg mouse
  Maximum Tolerable Dose MTD µmol complex /kg mouse: 43 µmol complex /kg mouse
[5]
  IC50: 15.3 ± 1.5 µM

## [Ru+2].c1cnc2c(c1)ccc1cccnc12.c1cnc2c(c1)ccc1cccnc12.c1cnc2c(c1)ccc1cccnc12 [Δ-1^2+, Δ-[Ru(phen)3]^2+]
[3]
  IC50: 93.6 ± 6.3 µM
[5]
  IC50: 64.8 ± 4.2 µM

## mix-[(phen)2Ru(tpphz)Ru(phen)2]^4+ [2^4+]
[3]
  IC50: 51.1 ± 3.4 µM
[4]
  Maximum Tolerable Dose MTD (mg complex /kg mouse): 3.3 mg complex /kg mouse
  Maximum Tolerable Dose MTD µmol complex /kg mouse: 2.5 µmol complex /kg mouse
[6]
  water solubility: water soluble
[7]
  reduction potential required: ≤ −0.70 V
[8]
  DNA cleavage activity upon in situ reduction by glutathione: nor do they exhibit any DNA cleavage activity
[5]
  IC50: 41.8 ± 2.7 µM

## [Ru+2].c1cnc2c(c1)ccc1cccnc12.c1cnc2c(c1)ccc1cccnc12.c1cnc2c(c1)ccc1cccnc12 [Λ-1^2+, Λ-[Ru(phen)3]^2+]
[3]
  IC50: 116 ± 6.9 µM
[5]
  IC50: 61.4 ± 4.7 µM

## [106Ru+2].c1cnc2c(c1)ccc1cccnc12.c1cnc2c(c1)ccc1cccnc12.c1cnc2c(c1)ccc1cccnc12 [[^106Ru(phen)3]^2+]
[9]
  recovery in the urine: nearly all the complex was recovered in the urine

## rac-[(phen)2Ru(tatpp)]^2+ [3^2+]
[3]
  IC50: 12.5 ± 1.9 µM
[4]
  Maximum Tolerable Dose MTD (mg complex /kg mouse): 67 mg complex /kg mouse
  Maximum Tolerable Dose MTD µmol complex /kg mouse: 65 µmol complex /kg mouse
[6]
  water solubility: water soluble
[7]
  potential of tatpp-based reductive processes: > −0.25 V
[5]
  IC50: 13.2 ± 1.8 µM

## ΛΛ-[(phen)2Ru(tatpp)Ru(phen)2]^4+ [ΛΛ-4^4+]
[3]
  IC50: 17.3 ± 1.5 µM
[4]
  Maximum Tolerable Dose MTD (mg complex /kg mouse): 66 mg complex /kg mouse
  Maximum Tolerable Dose MTD µmol complex /kg mouse: 43 µmol complex /kg mouse
[5]
  IC50: 16.7 ± 1 µM

## [Ru(phen)2(dppz)]^2+
[1]
  potentiation of cytotoxicity under hypoxic conditions: neither of which showed significant potentiation

## Λ-[(phen)2Ru(tatpp)]^2+ [Λ-3^2+]
[3]
  IC50: 13 ± 2 µM
[5]
  IC50: 13.8 ± 1.5 µM

## [Ru+2].c1ccc(-c2ccccn2)nc1.c1ccc(-c2ccccn2)nc1.c1ccc(-c2ccccn2)nc1 [rac-[Ru(bpy)3]^2+, reference compound]
[3]
  IC50: 198 ± 15 µM
[5]
  IC50: 209 ± 16 µM

## ΔΔ-[(phen)2Ru(tatpp)Ru(phen)2]^4+ [ΔΔ-4^4+]
[3]
  IC50: 9.3 ± 0.9 µM
[10]; presence or absence of GSH, Fig. 3A
  DNA cleavage, dependence on GSH: only show DNA cleavage when GSH is present
[10]; with GSH, anaerobic vs aerobic
  DNA cleavage when O2 is absent: appreciably enhanced
[11]
  apoptosis in HUVEC: did not show apoptosis
[12]
  Bax level: significantly increased
  kinase signaling (pAKT, pEGFR, PI3K, pRb, CDK4, cyclinB1, bcl2): generalized decrease in kinase signaling
[4]
  Maximum Tolerable Dose MTD (mg complex /kg mouse): 100 mg complex /kg mouse
  Maximum Tolerable Dose MTD µmol complex /kg mouse: 64 µmol complex /kg mouse
[5]
  IC50: 9.5 ± 1.2 µM
[13]
  mean growth percentage, whole panel: 80%
[14]; malignant cell lines vs HUVEC and HUVSMC
  difference in cytotoxicity, malignant vs normal cells: ~10 fold
[14]; read-out: IC50 for normal HUVEC cells
  IC50: ~100 µM
[15]
  apoptosis in HUVSMC: did not show apoptosis
[16]
  IC50: ~100 µM

## [Ru+2].c1cnc2c(c1)ccc1cccnc12.c1cnc2c(c1)ccc1cccnc12.c1cnc2c(c1)ccc1cccnc12 [1^2+, rac-[Ru(phen)3]^2+]
[3]
  IC50: 90 µM and 92.8 µM
[4]
  Maximum Tolerable Dose MTD (mg complex /kg mouse): 6.6 mg complex /kg mouse
  Maximum Tolerable Dose MTD µmol complex /kg mouse: 9.1 µmol complex /kg mouse
[7]
  reduction potential required: ≤ −0.70 V
[8]
  DNA cleavage activity upon in situ reduction by glutathione: nor do they exhibit any DNA cleavage activity
[5]
  IC50: 90 µM and 86.7 µM
[2]; iodo salt, mice, i.p. injection
  minimum lethal dose: 12 µmol/kg
[2]; oral
  toxicity when administered orally: non-toxic
[17]
  inhibition of acetyl cholinesterase (AChE): competitive inhibitor

## mix-[(phen)2Ru(tatpp)Ru(phen)2]^4+ [4^4+]
[3]
  IC50: 16.2 ± 1.9 µM
[4]
  Maximum Tolerable Dose MTD (mg complex /kg mouse): 66 mg complex /kg mouse
  Maximum Tolerable Dose MTD µmol complex /kg mouse: 43 µmol complex /kg mouse
[6]
  water solubility: water soluble
[7]
  potential of tatpp-based reductive processes: > −0.25 V
[8]
  DNA cleavage activity upon in situ reduction by glutathione: effective DNA cleaving agent
[5]
  IC50: 15.2 ± 1.8 µM
